The values below come from EPA's ToxRefDB 2.

The structures appear in SMILES notation.

Series [1] deals with rat. The settings on record: Prenatal developmental toxicity study, sprague dawley, Oral, Gavage/Intubation, dose end: 16 GD.
Series [2] concerns rabbit. The following applies: Prenatal developmental toxicity study, new zealand white, Oral, Gavage/Intubation, dose end: 18 GD.
The test system of series [3] is mouse. The settings on record: Prenatal developmental toxicity study, cd1, Oral, Gavage/Intubation, dose end: 17 GD.
In series [4] the test system is mouse. The following applies: Carcinogenicity, cd1, Oral, Feed, dose end: 78 week.
Series [5] relates to rat. The settings on record: Multigenerational reproductive toxicity study, wistar, Oral, Feed, dose end: 2 generation.
The subject of series [6] is rat. The settings on record: Multigenerational reproductive toxicity study, sprague dawley, Oral, Gavage/Intubation, dose end: 2 generation.
In series [7] the test system is rat. The following applies: Prenatal developmental toxicity study, other, Oral, Gavage/Intubation, dose end: 19 GD.
Setting [8] is: group: developmental, systemic / in life observation / body weight / fetal weight.
Setting [9] is: group: maternal, systemic / in life observation / food consumption / food consumption.
[10] abbreviates: group: maternal, systemic / in life observation / food consumption / food consumption + systemic / in life observation / body weight / body weight.
Setting [11] is: group: developmental, developmental / developmental malformation / bone / absent + developmental / developmental malformation / bone / full supernumerary.
Where [12] appears, read: group: maternal, reproductive / reproductive performance / resorptions / resorptions + systemic / in life observation / body weight / body weight gain + ….
Where [13] appears, read: group: maternal, systemic / in life observation / clinical signs / respiration (dyspnea).
The mark [14] stands for this setting: group: developmental, developmental / developmental malformation / bone / supernumerary + systemic / in life observation / body weight / fetal weight.
Where [15] appears, read: group: maternal, systemic / in life observation / body weight / body weight + systemic / in life observation / body weight / body weight gain + systemic / ….
Setting [16] is: group: cholinesterase, cholinesterase / cholinesterase / cholinesterase / brain cholinesterase (che) + cholinesterase / cholinesterase / cholinesterase / ….
Where [17] appears, read: group: systemic, systemic / in life observation / body weight / body weight + systemic / in life observation / body weight / body weight gain + systemic / in….
Setting [18] is: group: offspring, developmental / developmental landmark / preputial separation / preputial separation + systemic / in life observation / body weight / ….
Setting [19] is: group: parental, systemic / pathology gross / eye / opacity + systemic / pathology microscopic / eye / inflammation + systemic / pathology microscopic / eye….
Where [20] appears, read: group: reproductive, reproductive / reproductive performance / estrous cycle / abnormal + reproductive / reproductive performance / estrous cycle / corpora lutea.
The mark [21] stands for this setting: group: offspring, developmental / offspring survival late / viability index / viability index + systemic / in life observation / body weight / offspring (pup….
Setting [22] is: group: parental, systemic / pathology microscopic / liver / hypertrophy + systemic / pathology microscopic / kidney / regeneration + systemic / organ weight….
Where [23] appears, read: group: parental, systemic / pathology microscopic / liver / hypertrophy + systemic / pathology microscopic / kidney / regeneration + systemic / pathology ….
Setting [24] is: group: developmental, developmental / developmental malformation / bone / [other] + developmental / developmental malformation / bone / bipartite ossification + ….
[25] abbreviates: group: maternal, systemic / in life observation / body weight / body weight gain + systemic / in life observation / food consumption / food efficiency.

For the molecule `C=CCOC(Cn1ccnc1)c1ccc(Cl)cc1Cl.O=S(=O)(O)O` (stereo not given) [Imazalil sulfate], the LEL in series [1] (setting [8]) turned out to be 80 mg/kg/day; in series [1] (setting [10]), 40 mg/kg/day; in series [2] (setting [11]), 20 mg/kg/day; in series [2] (setting [13]) it was 5 mg/kg/day. Further, the LOAEL is 80 mg/kg/day in series [1] (setting [8]), 40 mg/kg/day in series [1] (setting [9]), above 20 mg/kg/day in series [2] (setting [11]) and 10 mg/kg/day in series [2] (setting [12]). In addition, the NEL in series [1] (setting [8]) was 40 mg/kg/day; in series [1] (setting [10]), below 40 mg/kg/day; in series [2] (setting [11]), 10 mg/kg/day; in series [2] (setting [13]), below 5 mg/kg/day. In addition, the NOAEL in series [1] (setting [8]) is 40 mg/kg/day; in series [1] (setting [9]) it was below 40 mg/kg/day; in series [2] (setting [11]), at least 20 mg/kg/day; in series [2] (setting [12]), 5 mg/kg/day.
For `C=CC(=O)NCNC(=O)C=C` [N,N'-Methylenebisacrylamide], the LEL in series [3] (group: developmental, developmental / developmental malformation / bone / supernumerary) is 10 mg/kg/day. Besides, in series [3] (setting [14]), the LOAEL was above 30 mg/kg/day, the NEL stood at 3 mg/kg/day and the NOAEL is at least 30 mg/kg/day. In series [3] (setting [15]), the lowest observed adverse effect level (LOAEL) is above 30 mg/kg/day, the NEL worked out at 3 mg/kg/day and the NOAEL is at least 30 mg/kg/day. Also, in series [3] (group: maternal, systemic / in life observation / body weight / body weight + systemic / organ weight / liver / relative to body weight + systemic / organ …), the LEL came out at 10 mg/kg/day.
For the molecule `CCN(CC)c1nc(C)cc(OP(=S)(OC)OC)n1` [Pirimiphos-methyl], in series [4] (setting [16]), the LEL worked out at 8.3 mg/kg/day, the LOAEL came out at 8.3 mg/kg/day, the NEL is below 8.3 mg/kg/day and the NOAEL was below 8.3 mg/kg/day. In addition, in series [4] (setting [17]), the LEL turned out to be 33 mg/kg/day, the LOAEL worked out at 33 mg/kg/day, the NEL amounted to 8.3 mg/kg/day and the NOAEL was determined as 8.3 mg/kg/day.
With `CS(=O)(=O)c1ccc(C(=O)C2C(=O)CCCC2=O)c(Cl)c1COCC(F)(F)F` [Tembotrione], in series [5] (setting [18]), the LEL was 1.3 mg/kg/day, the LOAEL was 1.3 mg/kg/day, the NEL is below 1.3 mg/kg/day and the NOAEL is below 1.3 mg/kg/day. In series [5] (setting [19]), the LEL turned out to be 1.3 mg/kg/day, the LOAEL was found to be 1.3 mg/kg/day, the NEL is below 1.3 mg/kg/day and the NOAEL was below 1.3 mg/kg/day. Moreover, in series [5] (setting [20]), the LEL is 123 mg/kg/day, the LOAEL came to 123 mg/kg/day, the NEL came out at 16.2 mg/kg/day and the NOAEL came out at 16.2 mg/kg/day.
On to `CCN(CC)C(=O)SCc1ccc(Cl)cc1` [Thiobencarb], for which the LEL in series [6] (setting [21]) is 100 mg/kg/day; in series [6] (setting [22]), 2 mg/kg/day; in series [7] (setting [24]), 150 mg/kg/day; in series [7] (setting [25]) it was 150 mg/kg/day. The LOAEL was above 100 mg/kg/day in series [6] (setting [21]), 2 mg/kg/day in series [6] (setting [23]), 150 mg/kg/day in series [7] (setting [24]) and 150 mg/kg/day in series [7] (setting [25]). Besides, the NEL in series [6] (setting [21]) was 20 mg/kg/day; in series [6] (setting [22]) it was below 2 mg/kg/day; in series [7] (setting [24]), 25 mg/kg/day; in series [7] (setting [25]), 25 mg/kg/day. For the same molecule, the NOAEL in series [6] (setting [21]) was at least 100 mg/kg/day; in series [6] (setting [23]), below 2 mg/kg/day; in series [7] (setting [24]), 25 mg/kg/day; in series [7] (setting [25]), 25 mg/kg/day.
